Consider 1 compound from US9675549B2, “Tablet containing composite with cyclodextrin” (AMBIT BIOSCIENCES CORPORATION, priority 2012, dated 2017).

This data set can be described thus: Examination of molecular state of AC220 in aqueous solution (1H chemical shift displacements, NOESY). It counts as physicochemical. On the procedure:
The molecular state of AC220 in the aqueous solution was examined. […] The protons of d and e could not be analyzed due to the overlapping with other proton signals.
Furthermore, the Hill coefficient was calculated from the analysis of the ^1H chemical shift displacements: the value was greater than 1, and indicated a network formation. It was confirmed that the addition of methanol to the AC220 aqueous solution inhibited the gel formation, and that the network was formed by intermolecular hydrogen bonding.

As to `CC(C)(C)c1cc(NC(=O)Nc2ccc(-c3cn4c(n3)sc3cc(OCCN5CCOCC5)ccc34)cc2)no1` [AC220, N-(5-tert-butyl-isoxazol-3-yl)-N′-{4-[7-(2-morpholin-4-yl-ethoxy)imidazo[2,1-b][1,3]benzothiazol-2-yl]phenyl}urea], the Hill coefficient result (calculated from 1H chemical shift displacements of AC220 aqueous solutions, indicates network formation) was “greater than 1”. Further, the Solubility in water entry (gelation of the aqueous solution with increasing concentration) is on record as “soluble”.
